Test [1] has as its target Smoothened (SMO) (Homo sapiens, UniProt Q99835). Briefly: BODIPY-cyclopamine competition binding in SMO-transfected HeLa cells. Type of test: cell-based.
Test [2] has as its target Smoothened (SMO) (Mus musculus, UniProt P56726). The test is described as above. In kind it is cell-based.

Each structure is given as a SMILES string.

Smoothened (SMO) (Homo sapiens, UniProt Q99835), sequence (Q99835 28-787): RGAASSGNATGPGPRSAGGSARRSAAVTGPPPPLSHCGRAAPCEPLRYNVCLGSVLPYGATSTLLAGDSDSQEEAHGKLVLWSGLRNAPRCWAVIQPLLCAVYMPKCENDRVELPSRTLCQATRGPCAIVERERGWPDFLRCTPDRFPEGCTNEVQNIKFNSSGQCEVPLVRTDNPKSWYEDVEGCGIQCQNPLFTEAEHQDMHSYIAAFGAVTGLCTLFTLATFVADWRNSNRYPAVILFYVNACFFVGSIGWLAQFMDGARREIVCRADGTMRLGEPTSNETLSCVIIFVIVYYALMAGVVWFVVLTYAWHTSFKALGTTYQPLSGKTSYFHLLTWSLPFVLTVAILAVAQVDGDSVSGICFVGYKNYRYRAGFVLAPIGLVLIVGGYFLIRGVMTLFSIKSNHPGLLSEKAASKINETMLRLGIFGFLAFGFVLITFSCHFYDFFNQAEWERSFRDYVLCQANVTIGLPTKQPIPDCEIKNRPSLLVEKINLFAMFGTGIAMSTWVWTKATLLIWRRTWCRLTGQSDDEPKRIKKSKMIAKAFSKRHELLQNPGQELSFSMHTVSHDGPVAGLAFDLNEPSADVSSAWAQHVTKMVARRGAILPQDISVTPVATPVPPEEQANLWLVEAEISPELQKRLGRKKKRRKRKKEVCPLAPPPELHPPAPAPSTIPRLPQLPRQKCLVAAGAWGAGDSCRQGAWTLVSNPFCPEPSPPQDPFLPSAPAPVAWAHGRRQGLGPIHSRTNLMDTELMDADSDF
Smoothened (SMO) (Mus musculus, UniProt P56726), sequence (P56726 33-793): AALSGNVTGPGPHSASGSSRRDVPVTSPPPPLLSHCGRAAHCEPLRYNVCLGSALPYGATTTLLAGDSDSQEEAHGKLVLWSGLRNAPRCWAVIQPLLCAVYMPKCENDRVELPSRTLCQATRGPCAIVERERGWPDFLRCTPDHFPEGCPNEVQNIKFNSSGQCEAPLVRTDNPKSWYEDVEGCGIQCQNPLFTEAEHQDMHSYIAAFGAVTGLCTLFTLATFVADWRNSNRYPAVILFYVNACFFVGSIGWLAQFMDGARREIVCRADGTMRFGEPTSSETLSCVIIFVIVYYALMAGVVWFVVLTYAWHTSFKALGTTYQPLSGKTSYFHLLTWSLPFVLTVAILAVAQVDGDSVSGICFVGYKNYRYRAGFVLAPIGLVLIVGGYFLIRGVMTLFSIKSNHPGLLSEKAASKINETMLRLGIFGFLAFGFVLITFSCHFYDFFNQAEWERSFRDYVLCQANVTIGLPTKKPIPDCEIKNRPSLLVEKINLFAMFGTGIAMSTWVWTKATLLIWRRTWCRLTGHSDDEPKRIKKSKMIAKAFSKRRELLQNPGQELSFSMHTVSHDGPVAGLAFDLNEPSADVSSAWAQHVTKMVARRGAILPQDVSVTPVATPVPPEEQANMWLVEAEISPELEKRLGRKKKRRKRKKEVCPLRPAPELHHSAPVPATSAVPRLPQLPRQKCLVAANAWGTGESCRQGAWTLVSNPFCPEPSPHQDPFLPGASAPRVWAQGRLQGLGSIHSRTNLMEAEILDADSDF

The Kd is a measure of binding affinity in units of concentration. A higher Kd goes with weaker binding. Consider `CC1=C2C[C@H]3[C@@H](CC=C4CC(=O)CC[C@@]43C)[C@@H]2CC[C@]12O[C@@H]1C[C@H](C)CN(CCNC(=O)CCCCCNC(=O)CCc3ccccc3)[C@H]1[C@H]2C` [KAAD-cyclopamine], for which the figures for the Kd in test [1] and in test [2] were 0.8 nM and 2 nM, respectively.

For the origin of these results see paper PMC3685283 (Molecular cancer research : MCR, 2012).
